Measured values: PubChem BioAssay (NCI)
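Method: 48-hour compound exposure of cells in 96-well plates, five concentrations, linear interpolation of endpoints. GI50: concentration for 50% inhibition of growth. TGI is the concentration that stops growth completely.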

Legend:
Assay in all cases: growth of human tumour cells (NCI), 48 h
[1] = system: M14 melanoma
[2] = system: MALME-3M melanoma
[3] = system: DU-145 prostate
[4] = system: SK-OV-3 ovarian
[5] = system: KM12 colon
[6] = system: HCT-116 colon
[7] = system: SNB-19 CNS
[8] = system: NCI/ADR-RES ovarian
[9] = system: IGROV1 ovarian
[10] = system: K-562 leukemia
[11] = system: SN12C renal
[12] = system: SK-MEL-28 melanoma
[13] = system: SNB-75 CNS
[14] = system: OVCAR-8 ovarian
[15] = system: UACC-257 melanoma
[16] = system: SF-268 CNS
[17] = system: SK-MEL-5 melanoma
[18] = system: SK-MEL-2 melanoma
[19] = system: CCRF-CEM leukemia
[20] = system: OVCAR-4 ovarian
[21] = system: OVCAR-5 ovarian
[22] = system: MCF7 breast
[23] = system: COLO 205 colon
[24] = system: NCI-H522 lung
[25] = system: NCI-H23 lung
[26] = system: HCT-15 colon
[27] = system: MDA-MB-231 breast
[28] = system: NCI-H226 lung
[29] = system: NCI-H460 lung
[30] = system: HOP-62 NSCLC
[31] = system: SR leukemia
[32] = system: SF-295 CNS
[33] = system: HT29 colon
[34] = system: HL-60(TB) leukemia
[35] = system: EKVX NSCLC
[36] = system: T-47D breast
[37] = system: UACC-62 melanoma
[38] = system: A549 NSCLC
[39] = system: ACHN renal
[40] = system: U251 CNS
[41] = system: LOX IMVI melanoma
[42] = system: OVCAR-3 ovarian
[43] = system: BT-549 breast
[44] = system: HS 578T breast
[45] = system: SF-539 CNS
[46] = system: SW-620 colon
[47] = system: PC-3 prostate
[48] = system: CAKI-1 renal
[49] = system: UO-31 renal
[50] = system: 786-0 renal
[51] = system: MDA-MB-435
[52] = system: MOLT-4 leukemia
[53] = system: HOP-92 NSCLC
[54] = system: TK-10 renal
[55] = system: RXF 393 renal
[56] = system: HCC-2998 colon
[57] = system: RPMI-8226 leukemia
[58] = system: A498 renal

`O=C(CSCC(=O)N/N=C\c1cc(Cl)cc(Cl)c1O)N/N=C\c1cc(Cl)cc(Cl)c1O` was tested, and the TGI [1] was 17.5 µM, the TGI [2] was 8.02 µM and the TGI [3] was 21.1 µM. For the same compound, the TGI [4] was 24 µM, the TGI [5] was 19.7 µM and the TGI [6] was 12.8 µM. The TGI [7] was over 100 µM, the TGI [8] was 12.5 µM and the TGI [9] was 15.3 µM. It also gave a TGI [10] of 12.7 µM, a TGI [11] of 16.2 µM and a TGI [12] of 18.9 µM. It also gave a TGI [13] of 36 µM, a TGI [14] of 14.3 µM and a TGI [15] of 18.2 µM. For the same compound, the TGI [16] was 15.7 µM, the TGI [17] was 16.3 µM and the TGI [18] was 12.9 µM. For the same compound, the TGI [19] was 0.748 µM, the TGI [20] was 19.1 µM and the TGI [21] was 22.9 µM. It also gave a TGI [22] of 34.5 µM, a TGI [23] of 20.4 µM and a TGI [24] of 6.59 µM. The TGI [25] was 22.9 µM, the TGI [26] was 12.9 µM and the TGI [27] was 13.5 µM. The TGI [28] was 15 µM, the TGI [29] was 42.8 µM and the TGI [30] was 18.3 µM. It also gave a TGI [31] of 11 µM, a TGI [32] of 21 µM and a TGI [33] of 22.3 µM. The TGI [34] was 13.9 µM, the TGI [35] was 28.3 µM and the TGI [36] was 27.9 µM. For the same compound, the TGI [37] was 13.7 µM, the TGI [38] was 32.8 µM and the TGI [39] was 11.7 µM. It also gave a TGI [40] of 6.61 µM, a TGI [41] of 10.8 µM and a TGI [42] of 6.83 µM. For the same compound, the TGI [43] was 25.8 µM, the TGI [44] was 20.1 µM and the TGI [45] was 11.1 µM. For the same compound, the TGI [46] was 16.2 µM, the TGI [47] was 18.5 µM and the TGI [48] was 15 µM. It also gave a TGI [49] of 17.5 µM, a TGI [50] of 20 µM and a TGI [51] of 21.1 µM. The TGI [52] was 8.81 µM, the TGI [53] was 31.4 µM and the TGI [54] was 21 µM. It also gave a TGI [55] of over 100 µM.
For `Cc1ccc(-c2c3c(nn2-c2ccc(S(=O)(=O)NC(=O)Nc4ccccc4)cc2)-c2ccccc2C3)cc1`, the GI50 [1] was 24.6 µM, the TGI [1] was 87.2 µM and the GI50 [3] was 15.3 µM. It also gave a TGI [3] of 33.9 µM, a GI50 [4] of 18.2 µM and a TGI [4] of 48.1 µM. It also gave a GI50 [5] of 18 µM, a TGI [5] of 51.2 µM and a GI50 [6] of 19.2 µM. For the same compound, the TGI [6] was over 100 µM, the GI50 [7] was 30 µM and the TGI [7] was over 100 µM. The GI50 [8] was 23.1 µM, the TGI [8] was 75.5 µM and the GI50 [56] was 13.6 µM. The TGI [56] was 37.9 µM, the GI50 [9] was 3.67 µM and the TGI [9] was 16.5 µM. It also gave a GI50 [10] of 11.1 µM, a TGI [10] of over 100 µM and a GI50 [11] of 16.9 µM. For the same compound, the TGI [11] was 35.8 µM, the GI50 [12] was 21.2 µM and the TGI [12] was 46.9 µM. It also gave a GI50 [13] of 22.9 µM, a TGI [13] of 66.3 µM and a GI50 [14] of 19.1 µM. It also gave a TGI [14] of 52.9 µM, a GI50 [15] of 18.7 µM and a TGI [15] of 39.9 µM. It also gave a GI50 [16] of 19.1 µM, a TGI [16] of 55.7 µM and a GI50 [17] of 15.1 µM. It also gave a TGI [17] of 36.5 µM, a GI50 [18] of 16.1 µM and a TGI [18] of 32.5 µM. The GI50 [19] was 2.13 µM, the TGI [19] was over 100 µM and the GI50 [20] was 19.7 µM. For the same compound, the TGI [20] was 51.5 µM, the GI50 [21] was 30.1 µM and the TGI [21] was 97.2 µM. It also gave a GI50 [22] of 20.5 µM, a TGI [22] of over 100 µM and a GI50 [23] of 19.5 µM. The TGI [23] was 45.9 µM, the GI50 [24] was 11.7 µM and the TGI [24] was 30.5 µM. It also gave a GI50 [25] of 15 µM, a TGI [25] of 37.6 µM and a GI50 [26] of 15.5 µM. It also gave a TGI [26] of 52.2 µM, a GI50 [27] of 17.5 µM and a TGI [27] of 55 µM. The GI50 [28] was 15.4 µM, the TGI [28] was 56 µM and the GI50 [29] was 19.3 µM. For the same compound, the TGI [29] was 70.2 µM, the GI50 [30] was 32 µM and the TGI [30] was over 100 µM. It also gave a GI50 [31] of 2.26 µM, a TGI [31] of 6.92 µM and a GI50 [32] of 34.5 µM. For the same compound, the TGI [32] was over 100 µM, the GI50 [33] was 35.7 µM and the TGI [33] was over 100 µM. It also gave a GI50 [34] of 24.2 µM, a TGI [34] of 83.7 µM and a GI50 [35] of 18.1 µM. The TGI [35] was 43.8 µM, the GI50 [57] was 7.22 µM and the TGI [57] was 69.3 µM. The GI50 [36] was 30.7 µM, the TGI [36] was over 100 µM and the GI50 [37] was 12.8 µM. The TGI [37] was 27.4 µM, the GI50 [38] was 28 µM and the TGI [38] was over 100 µM. It also gave a GI50 [39] of 14.6 µM, a TGI [39] of 30.5 µM and a GI50 [40] of 17.5 µM. For the same compound, the TGI [40] was 37.6 µM, the GI50 [41] was 12.3 µM and the TGI [41] was over 100 µM. For the same compound, the GI50 [42] was 32.9 µM, the TGI [42] was over 100 µM and the GI50 [43] was 18.8 µM. For the same compound, the TGI [43] was 44.2 µM, the GI50 [44] was 24.1 µM and the TGI [44] was 73.9 µM. The GI50 [58] was 19.6 µM, the TGI [58] was 36.6 µM and the GI50 [45] was 18.2 µM. It also gave a TGI [45] of 38.9 µM, a GI50 [46] of 12 µM and a TGI [46] of over 100 µM. The GI50 [47] was 16 µM, the TGI [47] was 38 µM and the GI50 [48] was 15.4 µM. It also gave a TGI [48] of 45.5 µM, a GI50 [49] of 8.78 µM and a TGI [49] of 24.3 µM. For the same compound, the GI50 [50] was 22.7 µM, the TGI [50] was over 100 µM and the GI50 [51] was 28.1 µM. For the same compound, the TGI [51] was over 100 µM, the GI50 [52] was 5.14 µM and the TGI [52] was over 100 µM. For the same compound, the GI50 [53] was 18.1 µM, the TGI [53] was 44.9 µM and the GI50 [54] was 10.3 µM. It also gave a TGI [54] of 24.8 µM, a GI50 [55] of 17.9 µM and a TGI [55] of 43.1 µM.
